Experiments:
[1] = molecular target: 5-hydroxytryptamine receptor 7 (Homo sapiens, UniProt P34969); assay: Displacement of [3H]LSD from human recombinant 5-HT7 receptor expressed in CHOK1 cells incubated for 60 mins by microbeta plate reader based method; format: cell-based, CHO-K1
D(2) dopamine receptor = D(2) dopamine receptor (Homo sapiens, UniProt P14416); assay: Displacement of [3H]N-methylspiperone from human recombinant dopamine D2 receptor expressed in CHOK1 cells incubated for 60 mins by microbeta plate reader based method; format: cell-based, CHO-K1
[2] = molecular target: T1, 5-hydroxytryptamine receptor 6 (Homo sapiens, UniProt P50406); assay: Displacement of [3H]LSD from human recombinant 5-HT6 receptor expressed in HEK293 cells incubated for 60 mins by microbeta plate reader based method; format: cell-based
[3] = molecular target: D(3) dopamine receptor (Homo sapiens) (UniProt P35462); assay: Displacement of [3H]N-methylspiperone from dopamine D3 receptor (unknown origin) assessed as total radioligand binding at 1 uM incubated for 60 mins by microbeta plate reader based method
[4] = molecular target: D(3) dopamine receptor (Homo sapiens) (UniProt P35462); assay: Displacement of [3H]N-methylspiperone from dopamine D3 receptor (unknown origin) assessed as total radioligand binding at 1.66 x 10^-7 M incubated for 60 mins by microbeta plate reader based method
[5] = molecular target: T2, 5-hydroxytryptamine receptor 1A (Rattus norvegicus, UniProt P19327); assay: Displacement of [3H]8-OH-DPAT from rat hippocampus 5-HT1A receptor incubated for 20 mins by microbeta plate reader based method
T2 sequence (P19327 whole entry): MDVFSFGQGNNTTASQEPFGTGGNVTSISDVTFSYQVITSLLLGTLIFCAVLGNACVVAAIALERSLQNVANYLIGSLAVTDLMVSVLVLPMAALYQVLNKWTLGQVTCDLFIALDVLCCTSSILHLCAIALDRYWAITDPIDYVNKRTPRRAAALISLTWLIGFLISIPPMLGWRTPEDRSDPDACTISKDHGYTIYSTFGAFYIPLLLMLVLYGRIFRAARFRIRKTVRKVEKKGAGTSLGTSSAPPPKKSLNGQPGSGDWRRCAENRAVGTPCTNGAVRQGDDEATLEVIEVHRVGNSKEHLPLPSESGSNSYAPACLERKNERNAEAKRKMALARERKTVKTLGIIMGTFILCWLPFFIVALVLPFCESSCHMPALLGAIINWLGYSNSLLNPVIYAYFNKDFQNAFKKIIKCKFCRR

[6] = Selectivity index, ratio of Ki for rat hippocampus 5-HT1A receptor to Ki for human recombinant 5-HT7 receptor
[7] = molecular target: T3, 5-hydroxytryptamine receptor 1A (Rattus norvegicus) (UniProt P19327); assay: Displacement of [3H]8-OH-DPAT from rat hippocampus 5-HT1A receptor assessed as total radioligand binding at 1 uM incubated for 20 mins by microbeta plate reader based method
T3 sequence (whole entry): T2 sequence (P19327 whole entry)

[8] = molecular target: T3, 5-hydroxytryptamine receptor 1A (Rattus norvegicus); assay: Displacement of [3H]8-OH-DPAT from rat hippocampus 5-HT1A receptor assessed as total radioligand binding at 1.66 x 10^-7 M incubated for 20 mins by microbeta plate reader based method
[9] = molecular target: T1, 5-hydroxytryptamine receptor 6; assay: Displacement of [3H]LSD from human recombinant 5-HT6 receptor expressed in HEK293 cells assessed as total radioligand binding at 1 uM incubated for 60 mins by microbeta plate reader based method; format: cell-based
[10] = molecular target: T1, 5-hydroxytryptamine receptor 6; assay: Displacement of [3H]LSD from human recombinant 5-HT6 receptor expressed in HEK293 cells assessed as total radioligand binding at 1.66 x 10^-7 M incubated for 60 mins by microbeta plate reader based method; format: cell-based
Mus musculus [11] = assay: Anxiolytic-like activity in Swiss mouse assessed as increase in number of punished crossings measured during 60 seconds period at 5 mg/kg, ip by four-plate test; format: functional; conditions: route intraperitoneal
Mus musculus [12] = assay: Anxiolytic-like activity in Swiss mouse assessed as increase in number of punished crossings measured during 60 seconds period at 2.5 mg/kg, ip by four-plate test; format: functional; conditions: route intraperitoneal

D(2) dopamine receptor, sequence (P14416 whole entry): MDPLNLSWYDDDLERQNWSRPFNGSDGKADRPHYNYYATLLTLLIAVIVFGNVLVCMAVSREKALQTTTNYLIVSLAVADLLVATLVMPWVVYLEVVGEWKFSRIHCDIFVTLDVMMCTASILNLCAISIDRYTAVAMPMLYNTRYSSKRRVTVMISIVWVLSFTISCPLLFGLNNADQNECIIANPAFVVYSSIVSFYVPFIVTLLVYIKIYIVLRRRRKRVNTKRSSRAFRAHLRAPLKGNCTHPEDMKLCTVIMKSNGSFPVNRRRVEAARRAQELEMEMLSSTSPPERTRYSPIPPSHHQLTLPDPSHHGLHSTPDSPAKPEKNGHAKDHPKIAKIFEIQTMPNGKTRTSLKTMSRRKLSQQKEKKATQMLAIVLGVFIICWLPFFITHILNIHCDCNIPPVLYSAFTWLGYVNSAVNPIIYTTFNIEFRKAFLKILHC
5-hydroxytryptamine receptor 7, sequence (P34969 whole entry): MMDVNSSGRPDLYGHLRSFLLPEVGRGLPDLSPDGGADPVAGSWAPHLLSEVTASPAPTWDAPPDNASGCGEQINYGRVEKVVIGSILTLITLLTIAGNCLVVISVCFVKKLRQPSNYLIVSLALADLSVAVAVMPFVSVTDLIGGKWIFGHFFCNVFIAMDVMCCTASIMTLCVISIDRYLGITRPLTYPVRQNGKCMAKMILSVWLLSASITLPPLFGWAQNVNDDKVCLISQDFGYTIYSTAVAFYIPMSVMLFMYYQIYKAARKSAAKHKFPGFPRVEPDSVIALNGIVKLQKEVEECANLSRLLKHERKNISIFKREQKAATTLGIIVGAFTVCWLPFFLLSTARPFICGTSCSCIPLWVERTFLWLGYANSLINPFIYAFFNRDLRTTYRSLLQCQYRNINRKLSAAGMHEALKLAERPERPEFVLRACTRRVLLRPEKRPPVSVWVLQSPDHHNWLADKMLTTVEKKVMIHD
T1 sequence (P50406 whole entry): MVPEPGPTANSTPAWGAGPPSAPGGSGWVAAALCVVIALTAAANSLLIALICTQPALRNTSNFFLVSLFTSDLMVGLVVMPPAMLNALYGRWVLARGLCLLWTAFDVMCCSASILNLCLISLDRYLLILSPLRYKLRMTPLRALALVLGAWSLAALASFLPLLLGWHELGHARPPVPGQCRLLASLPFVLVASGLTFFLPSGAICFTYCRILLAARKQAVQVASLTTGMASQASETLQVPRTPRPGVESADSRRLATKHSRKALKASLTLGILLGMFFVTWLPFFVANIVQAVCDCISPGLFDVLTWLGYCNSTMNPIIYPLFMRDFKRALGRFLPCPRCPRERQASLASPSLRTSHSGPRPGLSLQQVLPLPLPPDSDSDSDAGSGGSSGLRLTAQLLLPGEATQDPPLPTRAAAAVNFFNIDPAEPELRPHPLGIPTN
D(3) dopamine receptor (Homo sapiens), sequence (P35462 whole entry): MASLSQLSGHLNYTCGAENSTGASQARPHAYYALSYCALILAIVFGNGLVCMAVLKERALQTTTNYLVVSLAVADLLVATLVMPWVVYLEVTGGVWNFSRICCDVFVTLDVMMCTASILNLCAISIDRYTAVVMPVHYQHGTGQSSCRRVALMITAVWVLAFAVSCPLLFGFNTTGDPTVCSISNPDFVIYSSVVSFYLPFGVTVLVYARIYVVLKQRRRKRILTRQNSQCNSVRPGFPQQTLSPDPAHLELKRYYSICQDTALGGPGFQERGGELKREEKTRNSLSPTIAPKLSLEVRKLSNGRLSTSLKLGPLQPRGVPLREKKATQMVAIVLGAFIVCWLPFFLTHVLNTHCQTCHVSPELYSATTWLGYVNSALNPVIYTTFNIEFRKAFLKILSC

`Cn1c(=O)c2c(nc3n(CCCCN4CCN(c5ccc(Cl)cc5)CC4)c(=O)ccn23)n(C)c1=O` showed a Ki [1] of 61 nM, a Ki (D(2) dopamine receptor) of 68 nM and a Ki [2] of 86 nM. For the same compound, the Activity [3] was 52%, the Activity [4] was 96% and the Ki [5] was 58 nM.
In the case of `Cn1c(=O)c2c(nc3n(CCCCN4CCN(c5ccccc5O)CC4)ccn23)n(C)c1=O`, the Ki [1] is reported as 1360 nM, the Ki (D(2) dopamine receptor) is reported as 700 nM and the Ratio Ki [6] is reported as 0.002. The Activity [7] was 7%, the Activity [8] was 40% and the Activity [9] was 90%. For the same compound, the Activity [10] was 99%, the Activity [3] was 69% and the Activity [4] was 67%. It also gave a Ki [5] of 2 nM.
For `Cn1c(=O)c2c(nc3n(CCCCCN4CCN(c5ccc(Cl)c(Cl)c5)CC4)c(=O)ccn23)n(C)c1=O`, the Activity [7] was 52%, the Activity [8] was 86% and the Activity [9] was 79%. The Activity [10] was 100%, the Activity [3] was 61% and the Activity [4] was 96%.
Work on `Cn1c(=O)c2c(nc3n(CCCCN4CCN(c5ccc(Cl)cc5)CC4)c(-c4ccccc4)cn23)n(C)c1=O` yielded a Ki [1] of 37 nM, a Ki (D(2) dopamine receptor) of 23 nM and a Ratio Ki [6] of 1.2. It also gave a Ki [2] of 447 nM and a Ki [5] of 46 nM.
For `Cc1cn2c3c(=O)n(C)c(=O)n(C)c3nc2n1CCCCN1CCN(c2ccc(Cl)cc2)CC1`, the Ki [1] was 361 nM, the Ki (D(2) dopamine receptor) was 123 nM and the Ratio Ki [6] was 0.1. For the same compound, the Ki [2] was 1460 nM and the Ki [5] was 38 nM.
`Cc1cccc(N2CCN(CCCCn3c(=O)ccn4c5c(=O)n(C)c(=O)n(C)c5nc34)CC2)c1C` showed an Activity [7] of 42%, an Activity [8] of 85% and an Activity [9] of 94%. For the same compound, the Activity [10] was 100%, the Activity [3] was 73% and the Activity [4] was 100%.
For `Cc1cn2c3c(=O)n(C)c(=O)n(C)c3nc2n1CCCCCN1CCN(c2ccc(Cl)cc2)CC1`, the Ki [1] was 691 nM, the Ki (D(2) dopamine receptor) was 106 nM and the Ratio Ki [6] was 0.09. For the same compound, the Ki [2] was 837 nM and the Ki [5] was 62 nM.
`Cn1c(=O)c2c(nc3n(CCCCN4CCN(c5ccc(Cl)c(Cl)c5)CC4)c(=O)ccn23)n(C)c1=O` showed an Activity [7] of 84%, an Activity [8] of 97% and an Activity [9] of 67%. It also gave an Activity [10] of 100%, an Activity [3] of 98% and an Activity [4] of 99%.
In the case of `Cn1c(=O)c2c(nc3n(CCCCCN4CCN(c5ccc(Cl)cc5)CC4)c(=O)ccn23)n(C)c1=O`, the Ki [1] is reported as over 1000 nM, the Ki (D(2) dopamine receptor) is reported as 215 nM and the Ki [2] is reported as 839 nM. The Activity [3] was 92%, the Activity [4] was 99% and the Ki [5] was 80 nM.
`Cn1c(=O)c2c(nc3n(CCCCCN4CCN(c5ccccc5O)CC4)c(=O)ccn23)n(C)c1=O` gave a Ki [1] of 473 nM, a Ki (D(2) dopamine receptor) of 340 nM and a Ki [2] of over 1000 nM. The Activity [3] was 46%, the Activity [4] was 67% and the Ki [5] was 2 nM.
In the case of `Cn1c(=O)c2c(nc3n(CCCCN4CCN(c5ccccc5O)CC4)c(=O)ccn23)n(C)c1=O`, the Activity [7] is reported as 79%, the Activity [8] is reported as 97% and the Activity [9] is reported as 100%. The Activity [10] was 100%, the Activity [3] was 26% and the Activity [4] was 84%.
With `Cn1c(=O)c2c(nc3n(CCCCCN4CCN(c5ccc(Cl)c(Cl)c5)CC4)ccn23)n(C)c1=O` the Activity [7] was 3%, the Activity [8] was 78% and the Activity [9] was 62%. For the same compound, the Activity [10] was 90%, the Activity [3] was 16% and the Activity [4] was 67%.
`Cn1c(=O)c2c(nc3n(CCCCCN4CCN(c5ccccc5O)CC4)ccn23)n(C)c1=O` showed a Ki [1] of 230 nM, a Ki (D(2) dopamine receptor) of 265 nM and a Ratio Ki [6] of 0.03. The Activity [7] was 0%, the Activity [8] was 57% and the Activity [9] was 67%. It also gave an Activity [10] of 76%, an Activity [3] of 3% and an Activity [4] of 69%. It also gave a Ki [5] of 7 nM.
Compound `Cc1cccc(N2CCN(CCCCCn3c(=O)ccn4c5c(=O)n(C)c(=O)n(C)c5nc34)CC2)c1C` has an Activity [7] of 50%, an Activity [8] of 88% and an Activity [9] of 59%. It also gave an Activity [10] of 85%, an Activity [3] of 67% and an Activity [4] of 83%.
In the case of `Cn1c(=O)c2c(nc3n(CCCCCN4CCN(c5ccc(Cl)cc5)CC4)ccn23)n(C)c1=O`, the Ki [1] is reported as 3640 nM, the Ki (D(2) dopamine receptor) is reported as 259 nM and the Ratio Ki [6] is reported as 0.02. For the same compound, the Ki [2] was 1590 nM and the Ki [5] was 73 nM.
In the case of `Cc1cn2c3c(=O)n(C)c(=O)n(C)c3nc2n1CCCCN1CCN(c2ccc(Cl)c(Cl)c2)CC1`, the Activity [7] is reported as 13%, the Activity [8] is reported as 74% and the Activity [9] is reported as 46%. The Activity [10] was 110%, the Activity [3] was 64% and the Activity [4] was 90%.
`Cn1c(=O)c2c(nc3n(CCCCN4CCN(c5ccc(Cl)c(Cl)c5)CC4)ccn23)n(C)c1=O` gave an Activity [7] of 9%, an Activity [8] of 51% and an Activity [9] of 67%. For the same compound, the Activity [10] was 91%, the Activity [3] was 0% and the Activity [4] was 31%.
`CN1C(=O)CN=C(c2ccccc2)c2cc(Cl)ccc21` [DIAZEPAM] gave an Activity (Mus musculus [11]) of 57% and an Activity (Mus musculus [12]) of 52%.
With `CSc1ccc2c(c1)C(N1CCN(C)CC1)Cc1ccccc1S2` (stereo not given) the Activity [9] was 1% and the Activity [10] was 3%.
For `Cc1cn2c3c(=O)n(C)c(=O)n(C)c3nc2n1CCCCN1CCN(c2ccccc2O)CC1`, the Ki [1] was 510 nM, the Ki (D(2) dopamine receptor) was 430 nM and the Ratio Ki [6] was 0.003. For the same compound, the Activity [7] was 8%, the Activity [8] was 44% and the Activity [9] was 90%. For the same compound, the Activity [10] was 90%, the Activity [3] was 67% and the Activity [4] was 86%. The Ki [5] was 2 nM.
With `CC[C@@H](CO)NC(=O)[C@@H]1C=C2c3cccc4c3c(cn4C)C[C@H]2N(C)C1` the Activity [7] was 11% and the Activity [8] was 18%.
Work on `Cc1cc2c(s1)Nc1ccccc1N=C2N1CCN(C)CC1` yielded an Activity [3] of 10% and an Activity [4] of 24%.
`Cc1cccc(N2CCN(CCCCn3ccn4c5c(=O)n(C)c(=O)n(C)c5nc34)CC2)c1C` gave an Activity [7] of 9%, an Activity [8] of 48% and an Activity [9] of 62%. It also gave an Activity [10] of 91%, an Activity [3] of 13% and an Activity [4] of 47%.
With `Cc1cn2c3c(=O)n(C)c(=O)n(C)c3nc2n1CCCCCN1CCN(c2ccccc2O)CC1` the Ki [1] was 124 nM, the Ki (D(2) dopamine receptor) was 468 nM and the Ratio Ki [6] was 0.1. For the same compound, the Activity [7] was 0%, the Activity [8] was 52% and the Activity [9] was 77%. For the same compound, the Activity [10] was 84%, the Activity [3] was 71% and the Activity [4] was 85%. It also gave a Ki [5] of 12 nM.
